This note sets out measurements from PubChem BioAssay AID1224866 (Xiaojiang Lab, Kunming Institute of Botany, CAS, 2016).

What all share (assay): TFEB nuclear translocation in HeLa cells, imaging, EGFP fusions (AID 1224866)
The test system of test [1] is HeLa TFEB-EGFP nuclear translocation, imaging. To be noted: stronger effect = higher value; dose or concentration not given here.
The target of test [2] is Transcription factor E3 (Homo sapiens) (UniProt P19532). To be noted: HeLa; measured here: TFE3 nuclear translocation; stronger effect = higher value; dose or concentration not given here.
Test [3] concerns the target Zinc finger protein with KRAB and SCAN domains 3 (Homo sapiens) (UniProt Q9BRR0). Particulars: HeLa EGFP-ZKSCAN3 cytoplasmic translocation; stronger effect = higher value; dose or concentration not given here.

Molecules are shown by their SMILES.

On to `CCCCCCCCCCCCCCCC(=O)OCC1=C[C@H]2C(=O)[C@]3(C=C(C)[C@H](O)[C@@]3(O)[C@@H]1O)[C@H](C)C[C@@H]1[C@H]2C1(C)C`, for which, in test [1], the cells with nuclear TFEB-EGFP was 66.6%. The same compound came in with a cells with nuclear EGFP-TFE3 in test [2] of 5.1%. In test [3], the cells with cytosolic EGFP-ZKSCAN3 was determined as 74.3%.
In the same order, the values of `CC1=C[C@H]2C(=O)[C@]3(C=C(C)[C@H](O)[C@@]3(O)[C@@H]1OC(=O)c1ccccc1)[C@H](C)C[C@@H]1[C@H]2C1(C)C` are 81.3%, 4.2% and 79.2%.
The like results for `CC(=O)O[C@@H]1C(C)=C[C@H]2C(=O)[C@]3(C=C(C)[C@H](OC(=O)c4ccccc4)[C@@]13O)[C@H](C)C[C@@H]1[C@H]2C1(C)C` were, in that order, 74.5%, 4.6% and 74.1%.
Regarding `CC=C(C)C(=O)O[C@@H]1C(C)=C[C@H]2C(=O)[C@]3(C=C(C)[C@H](OC(C)=O)[C@@]13O)[C@H](C)C[C@@H]1[C@H]2C1(C)C`, the cells with nuclear TFEB-EGFP in test [1] is 70.3%. Also, the cells with nuclear EGFP-TFE3 in test [2] turned out to be 4.2%. In test [3], this compound gave a cells with cytosolic EGFP-ZKSCAN3 of 75%.
In the case of `CC1=C[C@H]2C(=O)[C@]3(C=C(C)[C@H](OC(=O)c4ccccc4)[C@@]3(O)[C@@H]1O)[C@H](C)C[C@@H]1[C@H]2C1(C)C`, the cells with nuclear TFEB-EGFP in test [1] was 65.8%. In test [2], this compound showed a cells with nuclear EGFP-TFE3 of 4%. The same compound yielded a cells with cytosolic EGFP-ZKSCAN3 in test [3] of 68.4%.
The like results for `CC=C(C)C(=O)O[C@@H]1C(C)=C[C@H]2C(=O)[C@]3(C=C(C)[C@H](O)[C@@]13O)[C@H](C)C[C@@H]1[C@H]2C1(C)C` were, in that order, 85.6%, 5.2% and 83.6%.
In the same order, the values of `CCCCCCCCCCCC(=O)O[C@@]12C[C@@H](C)[C@]34C=C(C)[C@H](O)[C@@]3(O)[C@H](O)C(COC(=O)C(C)C(C)C)=C[C@@H](C4=O)[C@@H]1C2(C)C` (stereo not given in full) are 62%, 3.9% and 67.4%.
The like results for `CC=C(C)C(=O)O[C@H]1C(C)=C[C@]23C(=O)[C@H](C=C(C)[C@@H](O)[C@]12O)[C@H]1[C@@H](C[C@H]3C)C1(C)C` were, in that order, 80.8%, 5.4% and 76.9%.
Regarding `CCCCCCCCCCCCCC(=O)OCC1=C[C@H]2C(=O)[C@]3(C=C(C)[C@H](O)[C@@]3(O)[C@@H]1O)[C@H](C)C[C@@H]1[C@H]2C1(C)C`, the cells with nuclear TFEB-EGFP in test [1] is 67.2%. The same compound came in with a cells with nuclear EGFP-TFE3 in test [2] of 4.8%. The cells with cytosolic EGFP-ZKSCAN3 in test [3] came out at 76.4%.
As to `CCCCCCCCCCCC(=O)O[C@@]12C[C@@H](C)[C@]34C=C(C)[C@H](OC(=O)C(C)C(C)C)[C@@]3(O)[C@H](O)C(CO)=C[C@@H](C4=O)[C@@H]1C2(C)C` (stereo not given in full), in test [1], the cells with nuclear TFEB-EGFP was 66.1%. In test [2], the cells with nuclear EGFP-TFE3 was 4.3%. For the same compound, the cells with cytosolic EGFP-ZKSCAN3 in test [3] came to 69.7%.
